Assay results as given in paper PMC4331650 (Biochimica et Biophysica Acta, 2014).
Residue numbers refer to the chain shown, from its start.

How the values were obtained:
[1] = test system: hCLC-Kb; details: [NFA]ext up to 2 mM; cited from earlier work
[2] = biological target: T1, WT CLC-Ka (Homo sapiens, UniProt P51800); test: NFA modulation of WT CLC-Ka currents, voltage clamp in Xenopus oocytes; type: cell-based
T1 sequence (P51800 1-687): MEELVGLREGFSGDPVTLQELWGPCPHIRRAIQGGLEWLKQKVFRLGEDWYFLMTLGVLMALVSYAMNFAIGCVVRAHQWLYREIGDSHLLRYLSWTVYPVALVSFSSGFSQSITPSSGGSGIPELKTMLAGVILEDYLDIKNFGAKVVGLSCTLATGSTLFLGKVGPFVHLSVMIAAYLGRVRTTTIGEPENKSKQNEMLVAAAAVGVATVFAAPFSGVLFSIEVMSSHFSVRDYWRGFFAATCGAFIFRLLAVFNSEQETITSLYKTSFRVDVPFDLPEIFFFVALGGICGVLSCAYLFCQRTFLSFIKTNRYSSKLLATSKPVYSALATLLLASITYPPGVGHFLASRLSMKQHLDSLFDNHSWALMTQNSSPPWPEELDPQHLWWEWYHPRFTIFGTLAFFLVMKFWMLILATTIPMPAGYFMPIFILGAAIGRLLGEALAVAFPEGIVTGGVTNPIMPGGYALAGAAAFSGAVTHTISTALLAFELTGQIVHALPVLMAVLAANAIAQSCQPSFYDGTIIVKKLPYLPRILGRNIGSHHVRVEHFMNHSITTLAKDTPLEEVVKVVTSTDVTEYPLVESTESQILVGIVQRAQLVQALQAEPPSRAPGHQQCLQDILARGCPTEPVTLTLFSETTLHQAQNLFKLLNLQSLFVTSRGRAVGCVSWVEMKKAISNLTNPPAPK
T1 sequence (Q8WZ55 1-320 Y98A partner): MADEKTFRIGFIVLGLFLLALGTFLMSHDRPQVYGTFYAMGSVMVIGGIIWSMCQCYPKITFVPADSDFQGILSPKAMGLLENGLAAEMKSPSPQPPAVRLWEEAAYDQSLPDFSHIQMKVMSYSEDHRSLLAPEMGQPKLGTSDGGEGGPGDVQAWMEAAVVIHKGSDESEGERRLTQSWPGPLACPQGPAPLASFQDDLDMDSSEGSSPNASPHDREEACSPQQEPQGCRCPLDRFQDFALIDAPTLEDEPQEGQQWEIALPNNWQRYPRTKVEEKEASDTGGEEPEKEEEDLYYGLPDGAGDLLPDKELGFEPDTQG

[3] = biological target: T2, F256A CLC-Ka/barttin (Homo sapiens, UniProt P51800, F256A); test: NFA effect on F256A CLC-Ka/barttin, whole-cell patch clamp in HEK293 cells; type: cell-based
T2 sequence (P51800 1-687 F256A): T1 sequence (P51800 1-687) with F256A
T2 sequence (Q8WZ55 1-320 partner): T1 sequence (Q8WZ55 1-320 Y98A partner) with A98Y

[4] = biological target: T3, N257A CLC-K1/barttin (Rattus norvegicus, UniProt Q06393, N257A); test: NFA effect on N257A CLC-K1 with barttin, voltage clamp in Xenopus oocytes; type: cell-based; details: 200 μM NFA
T3 sequence (Q06393 1-687 N257A): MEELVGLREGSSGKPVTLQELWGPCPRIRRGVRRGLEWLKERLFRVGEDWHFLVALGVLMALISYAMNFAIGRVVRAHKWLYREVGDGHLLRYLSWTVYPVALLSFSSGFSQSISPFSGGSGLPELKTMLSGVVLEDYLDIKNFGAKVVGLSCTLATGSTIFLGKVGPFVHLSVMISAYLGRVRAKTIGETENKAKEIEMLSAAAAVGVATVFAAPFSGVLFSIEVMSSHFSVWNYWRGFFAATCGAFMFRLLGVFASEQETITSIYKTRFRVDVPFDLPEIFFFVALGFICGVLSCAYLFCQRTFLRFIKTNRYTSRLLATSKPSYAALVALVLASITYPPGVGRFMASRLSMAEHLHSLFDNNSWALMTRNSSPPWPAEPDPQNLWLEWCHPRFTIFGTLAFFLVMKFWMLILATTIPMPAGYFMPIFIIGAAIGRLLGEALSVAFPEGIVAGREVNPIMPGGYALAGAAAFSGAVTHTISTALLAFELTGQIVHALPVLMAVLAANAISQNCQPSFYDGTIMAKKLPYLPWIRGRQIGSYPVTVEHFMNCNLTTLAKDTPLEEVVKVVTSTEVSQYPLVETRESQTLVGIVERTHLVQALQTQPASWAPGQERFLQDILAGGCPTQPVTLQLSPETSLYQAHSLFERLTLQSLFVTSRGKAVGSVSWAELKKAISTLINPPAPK
T3 sequence (Q8WZ55 1-320 Y98A partner): T1 sequence (Q8WZ55 1-320 Y98A partner)

[5] = biological target: T4, N257A CLC-K1 (Rattus norvegicus, UniProt Q06393, N257A); test: NFA effect on N257A CLC-K1 without barttin, voltage clamp in Xenopus oocytes; type: cell-based; details: 200 μM NFA
T4 sequence (Q06393 1-687 N257A): T3 sequence (Q06393 1-687 N257A)

For O=C(O)c1cccnc1Nc1cccc(C(F)(F)F)c1 [NFA, niflumic acid], the “effect on hCLC-Kb” value [1] is listed as “potentiated”, the current increase ([2]; 200 μM NFA, WT CLC-Ka in Xenopus oocytes) is listed as 3 fold and the “effect of NFA on currents” value ([2]; [NFA]ext > 500 μM) is listed as “inhibited”. The “maximal stimulation of currents” value ([2]; at 500 μM NFA, currents at 60 mV normalized to 0 NFA) was 4 fold, the “effect of NFA on currents” value ([2]; very low [NFA]ext) was “not changed” and the “effect of NFA on currents” value ([3]; 20 μM NFA) was “increased”. The “effect of NFA on currents” value ([3]; 500 μM NFA) was “inhibited”, the “[NFA]ext up to which potentiation is seen” value ([3]; inhibition at higher [NFA]ext) was “up to 200 μM” and the “sensitivity to NFA compared with WT” value [4] was “only weakly more sensitive”. For the same compound, the “sensitivity to NFA compared with WT” value [5] was “only weakly more sensitive”.
